Measured values from US20250304549A1, “HYDROXYAMIDE DERIVATIVE AND USE THEREOF” (SICHUAN HUIYU PHARMACEUTICAL CO., LTD., priority 2022, published 2025).
Structures can show the parent of a compound that is named as a salt.

Key:
[1] = system: NCI-H1417 cells; experiment: In vitro cell inhibition assay - H1417 cell proliferation (CellTiter-Glo); assay type: cell-based
Outline: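 Cells exposed to 8 compound concentrations (5-fold dilutions) in BEGM with 10% FBS for 7 days at 37° C., 5% CO2. Viable cells measured by CellTiter-Glo luminescence; inhibition versus no-inhibitor and no-cell controls, IC50 fitted.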

[2] = target: pan-HDAC; experiment: In vitro enzyme inhibition assay - HDAC (HDAC-Glo I/II), pan-HDAC; assay type: biochemical
Outline: (§1)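 Eight compound concentrations (5-fold steps from a 1 mM DMSO stock) tested against pan-HDAC, HDAC1 and HDAC8 with HDAC-Glo I/II reagents, luminescence read-out. Percent inhibition normalized to no-inhibitor and no-enzyme wells; IC50 derived by four-parameter logistic fit.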

[3] = target: HDAC1 (Homo sapiens (Human), UniProt Q13547); experiment: In vitro enzyme inhibition assay - HDAC (HDAC-Glo I/II), HDAC1; assay type: biochemical; details: read-out: HDAC IC50 (nM) HDAC 1
Protocol: 2. In Vitro Enzyme Inhibition Assay—HDAC
The effect of the compound on the enzymatic activity of pan-HDAC and two isoforms (HDAC1 and HDAC8) was examined using the HDAC-Glo I/II Assay and Screening System assay to assess the level of inhibition of HDAC protease activity and selectivity in each isoform. The proteins and detection reagents were from the HDAC-Glo™ I/II Assay and Screening System (Promega). A 1 mM stock solution of the compound was prepared in DMSO and diluted in a 5-fold gradient to create a series of 8 concentrations, and a specific volume of the highest concentration was diluted 25 times with HDAC Buffer to obtain 4× working solution of the compound. […] The 384-well plate was then read on a multifunctional microplate reader, with the Luminescence channel selected to record Luminescence values (RLU). The inhibition rate was calculated using the following formula: […]
Note: ‘Negative’ refers to the group without the inhibitor; ‘Blank’ refers to the group without the enzyme.
The IC50 value was calculated by fitting the inhibition rate by GraphPad Prism software, employing log (inhibitor) vs. response-Variable Slope (four parameters) model.

[4] = target: LSD1 (Homo sapiens (Human), UniProt O60341); experiment: In vitro enzyme inhibition assay - LSD1 (HTRF); assay type: biochemical
[5] = target: HDAC8 (Homo sapiens (Human), UniProt Q9BY41); experiment: In vitro enzyme inhibition assay - HDAC (HDAC-Glo I/II), HDAC8; assay type: biochemical; details: read-out: HDAC IC50 (nM) HDAC 8
Outline: as §1

[6] = system: NCI-H526 cells; experiment: In vitro cell inhibition assay - NCI-H526 cell proliferation (CellTiter-Glo); assay type: cell-based; details: H526 small cell lung cancer cell proliferation, 5 days
Protocol: 6. In Vitro Cell Inhibition Assay—NCI-H526 Cell Proliferation
The inhibitory effect of the compounds on cell proliferation was assessed by detecting the number of viable cells using CellTiter-Glo® reagent. NCI-H526 cells in the logarithmic growth phase were collected and inoculated into transparent bottom 96-well plates at a density 1×10^3 cells per well with 100 μL of medium, and incubated at 37° C., 5% CO2 overnight. The compounds were sequentially diluted in a 5-fold concentration gradient with DMSO to obtain 8 different concentrations. These were then diluted with RPMI-640 (containing 10% FBS) cell culture medium to obtain the compound working solution (2×), which was added to the cell supernatant at 100 μL per well. The incubation continued for 5 days at 37° C., 5% CO2. The plate was then removed and equilibrated at room temperature (25° C.) along with the CellTiter-Glo® mixing reagent for 10-30 minutes; 80 μL of the culture medium was carefully aspirated from each well, and 80 μL of CellTiter-Glo® reagent was added. The cells were thoroughly mixed with the CellTiter-Glo® mixing reagent using a microplate shaker for 2 min. and then incubated at room temperature for 10 min. The 96-well plate was subsequently placed on a multifunctional microplate reader to record the Luminescence values (RLU).
The inhibition rate was calculated using the following formula: […]
Note: ‘Negative’ refers to the group without inhibitors; ‘Blank’ refers to the group without cells.
The IC50 value was determined by fitting the inhibition rate by GraphPad Prism software.

[7] = system: DU145 cells; experiment: In vitro cell inhibition assay - DU145 cell proliferation (CellTiter-Glo); assay type: cell-based
Outline: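 DU145 cells were seeded at 1×10^3 per well, exposed next day to an 8-point, 5-fold compound dilution series in RPMI-640 with 10% FBS, and incubated 6 days at 37° C. Viable cells were measured by CellTiter-Glo luminescence, and IC50 was fitted from inhibition rates relative to no-inhibitor and no-cell controls.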

[8] = system: NCI-H69 cells; experiment: In vitro cell inhibition assay - NCI-H69 cell proliferation (CellTiter-Glo); assay type: cell-based
Outline: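 Proliferation was assessed after a 7-day compound treatment of cells seeded at 1×10^3 per well. IC50 values came from fitting inhibition rates derived from CellTiter-Glo luminescence.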

[9] = H1417 small cell lung cancer cell proliferation
[10] = Homo sapiens, NCI-H1417, H1417 small cell lung cancer cell proliferation
[11] = Homo sapiens, DU-145, Du145 prostate cancer cell proliferation
[12] = Homo sapiens, NCI-H69, H69 small cell lung cancer cell proliferation
[13] = Du145 prostate cancer cell proliferation
[14] = H69 small cell lung cancer cell proliferation

HDAC8, sequence (Q9BY41 whole entry): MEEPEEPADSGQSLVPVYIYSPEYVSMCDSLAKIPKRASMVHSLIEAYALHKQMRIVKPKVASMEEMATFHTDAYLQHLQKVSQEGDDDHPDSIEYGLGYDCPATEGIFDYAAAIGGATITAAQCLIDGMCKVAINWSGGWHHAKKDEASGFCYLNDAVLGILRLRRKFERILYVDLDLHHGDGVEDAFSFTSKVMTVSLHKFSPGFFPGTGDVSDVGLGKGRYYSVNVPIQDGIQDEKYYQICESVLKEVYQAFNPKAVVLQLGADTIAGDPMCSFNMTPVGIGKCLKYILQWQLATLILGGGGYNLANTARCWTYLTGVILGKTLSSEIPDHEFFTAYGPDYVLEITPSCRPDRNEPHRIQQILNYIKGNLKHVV
HDAC1, sequence (Q13547 whole entry): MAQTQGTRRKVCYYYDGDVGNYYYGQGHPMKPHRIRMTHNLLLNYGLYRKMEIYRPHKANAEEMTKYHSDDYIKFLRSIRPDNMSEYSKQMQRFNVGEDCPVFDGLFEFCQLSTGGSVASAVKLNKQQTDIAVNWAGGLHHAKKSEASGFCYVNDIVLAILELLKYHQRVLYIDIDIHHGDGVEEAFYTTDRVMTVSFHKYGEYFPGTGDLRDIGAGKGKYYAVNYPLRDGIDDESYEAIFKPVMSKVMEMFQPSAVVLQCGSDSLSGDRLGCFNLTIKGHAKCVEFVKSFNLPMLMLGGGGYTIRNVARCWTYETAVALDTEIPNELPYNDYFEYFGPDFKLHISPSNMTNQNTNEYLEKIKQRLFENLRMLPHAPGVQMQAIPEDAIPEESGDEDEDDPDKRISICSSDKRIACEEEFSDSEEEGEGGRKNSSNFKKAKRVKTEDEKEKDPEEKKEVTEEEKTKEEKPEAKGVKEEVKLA

IC50 [1, 9] [nM] | IC50 [2] [nM] | IC50 [3] [nM] | IC50 [4] [nM] | IC50 [5] [nM] | IC50 ([6]; Homo sapiens, NCI-H526, 120 h) [nM] | IC50 [1, 10] [nM] | IC50 [7, 11] [nM] | IC50 [8, 12] [nM] | IC50 [6] [nM] | IC50 [7, 13] [nM] | IC50 [8, 14] [nM] | SMILES
140 | 552 | 1060 | 1.13 | 353 | – | – | – | – | – | – | – | Cc1ccc(-c2c(-c3ccc(C#N)c(F)c3)nc(N3CCC(NCCCCCCC(=O)NO)CC3)n3ccnc23)cc1O [Example 34, 7-(1-(7-(4-cyano-3-fluorophenyl)-8-(3-hydroxy-4-methylphenyl)imidazo[1,2-c]pyrimidin-5-yl)piperidin-4-yl)amino)-N-hydroxyheptanamide Hydrochloride]
– | – | – | – | – | 8.27 | 11.7 | 11 | 3.96 | – | – | – | COc1ccc(-c2cnc(N3CCC(NCc4ccc(/C=C/C(=O)NO)cc4)CC3)c(F)c2-c2ccc(C#N)c(F)c2)cc1O [Example 76, (E)-3-(4-(((1-(4-(4-cyano-3-fluorophenyl)-3-fluoro-5-(3-hydroxy-4-methoxyphenyl)pyridin-2-yl)piperidin-4-yl)amino)methyl)phenyl)-N-hydroxyacrylamide formate]
– | – | – | – | – | 34.6 | 42 | 45.3 | 6.49 | – | – | – | N#Cc1ccc(-c2c(-c3ccc(/C=C/C(=O)NO)c(O)c3)cnc(N3CCC(NCc4ccc(/C=C/C(=O)NO)cc4)CC3)c2C#N)cc1F [Example 90]
– | – | – | 1.95 | – | 10.3 | 6.56 | 26 | 8.52 | – | – | – | COc1ccc(-c2cnc(N3CCC(NCc4ccc(/C=C/C(=O)NO)cc4)CC3)c(C#N)c2-c2ccc(C#N)c(F)c2)cc1O [Example 37, (E)-3-(4-(((1-(3-cyano-4-(4-cyano-3-fluorophenyl)-5-(3-hydroxy-4-methoxyphenyl)pyridin-2-yl)piperidin-4-yl)amino)methyl)phenyl)-N-hydroxyacrylamide hydrochloride]
– | 16.4 | – | 39.9 | 16.3 | 108 | 74.2 | 149 | 101 | – | – | – | COc1cc(-c2cnc(N3CCC(NCc4cnc(/C=C/C(=O)NO)nc4)CC3)c(C#N)c2-c2ccc(C#N)c(F)c2)ccc1O [Example 96, (E)-3-(5-((1-(3-Cyano-4-(4-cyano-3-fluorophenyl)-5-(4-hydroxy-3-methoxyphenyl)pyridin-2-yl)piperidin-4-yl)amino)methyl) pyrimidin-2-yl)-N-hydroxyacrylamide formate]
– | 14.9 | – | – | 165 | 29.3 | 14 | 56.5 | 27.8 | – | – | – | COc1ccc(-c2cnc(N3CCC(NCc4ccc(/C=C/C(=O)NO)cc4)CC3)cc2-c2ccc(C#N)c(F)c2)cc1O [Example 80, (E)-3-(4-(((1-(4-(4-cyano-3-fluorophenyl)-5-(3-hydroxy-4-methoxyphenyl)pyridin-2-yl)piperidin-4-yl)amino)methyl)phenyl)-N-hydroxyacrylamide formate]
– | – | – | – | – | 6.22 | 2.64 | 21.8 | 13.1 | – | – | – | Cc1ccc(-c2cnc(N3CCC(NCc4cnc(/C=C/C(=O)NO)nc4)CC3)c(C#N)c2-c2ccc(C#N)c(F)c2)cc1O [Example 148, (E)-3-(5-(((1-(3-Cyano-4-(4-cyano-3-fluorophenyl)-5-(3-hydroxy-4-methylphenyl)pyridin-2-yl)piperidin-4-yl)amino)methyl)pyrimidin-2-yl)-N-hydroxyacrylamide formate]
– | 197 | – | 1.11 | 132 | 280 | 1.76 | 715 | 284 | – | – | – | COc1ccc(-c2cnc(N3CCC(NCc4ccc5cc(C(=O)NO)sc5c4)CC3)c(C#N)c2-c2ccc(C#N)c(F)c2)cc1O [Example 126, 6-(1-(3-Cyano-4-(4-cyano-3-fluorophenyl)-5-(3-hydroxy-4-methoxyphenyl)pyridin-2-yl)piperidin-4-yl)amino)methyl)-N-hydroxybenzothio phene-2-carboxamide formate]
– | – | – | – | – | 14.5 | 2.08 | 33.9 | 23.6 | – | – | – | COc1ccc(-c2cnc(N3CCCC(NCc4ccc(/C=C/C(=O)NO)cc4)CC3)c(C#N)c2-c2ccc(C#N)c(F)c2)cc1O (centres unmarked) [Example 149, (E)-3-(4-(((1-(3-Cyano-4-(4-cyano-3-fluorophenyl)-5-(3-hydroxy-4-methoxyphenyl)pyridin-2-yl)azepan-4-yl)amino)methyl)phenyl)-N-hydroxyacrylamide formate]
1.7 | 0.8 | – | 0.36 | 13 | – | – | – | – | 4.54 | 10.4 | 4.21 | COc1ccc(-c2cnc(N3CCC(NCc4ccc(/C=C/C(=O)NO)nc4)CC3)c(C#N)c2-c2ccc(C#N)c(F)c2)cc1O [Example 117, (E)-3-(5-((1-(3-Cyano-4-(4-cyano-3-fluorophenyl)-5-(3-hydroxy-4-methoxyphenyl)pyridin-2-yl)piperidin-4-yl)amino)methyl) pyridin-2-yl)-N-hydroxyacrylamide formate]
– | 5.45 | – | 0.62 | 73.6 | 68.4 | 4 | 116 | 32.9 | – | – | – | COc1ccc(-c2ccc(N3CCC(NCc4ccc(/C=C/C(=O)NO)cc4)CC3)c(C#N)c2-c2ccc(C#N)c(F)c2)cc1O [Example 84, (E)-3-(4-(((1-(3′,4″-dicyano-3″-fluoro-3-hydroxy-4-methoxy-[1,1′:2′,1″-terphenyl]-4′-yl)piperidin-4-yl)amino)methyl)phenyl)-N-hydroxyacrylamide]
– | – | – | 1.8 | – | 4.61 | 7.59 | 4.24 | 4.73 | – | – | – | N#Cc1ccc(-c2c(-c3ccc4cn[nH]c4c3)cnc(N3CCC(NCc4ccc(/C=C/C(=O)NO)cc4)CC3)c2C#N)cc1F [Example 142, (E)-3-(4-(((1-(3-Cyano-4-(4-cyano-3-fluorophenyl)-5-(1H-indazol-6-yl)pyridin-2-yl)piperidin-4-yl)amino)methyl)phenyl)-N-hydroxyacrylamide formate]
4.2 | – | – | 0.74 | – | – | – | – | – | 71.3 | 112 | 76.3 | COc1ncc(-c2cnc(N3CCC(NCc4ccc(/C=C/C(=O)NO)cc4)CC3)c(C#N)c2-c2ccc(C#N)c(F)c2)cc1O [Example 123, (E)-3-(4-((1-(5-Cyano-4-(4-cyano-3-fluorophenyl)-5′-hydroxy-6′-methoxy-[3,3′-bipyridin]-6-yl)piperidin-4-yl)amino)methyl) phenyl)-N-hydroxyacrylamide trifluoroacetate]
– | 17.5 | 68.1 | – | 215 | – | 216 | – | – | – | – | – | COc1ccc(-c2c(OCCCCCCC(=O)NO)cc(N3CCC(N)CC3)nc2-c2ccc(C#N)c(F)c2)cc1O [Example 1, 7-((6-(4-aminopiperidin-1-yl)-2-(4-cyano-3-fluorophenyl)-3-(3-hydroxy-4-methoxyphenyl)pyridin-4-yl)oxy)-N-hydroxyheptanamide hydrochloride]
